# Like-named read-outs stand apart in the source and are kept apart here. Where a SMILES comes first, the peptide text is derived from it. [ ]: non-standard residue; d: D form. Sar = CNCC(=O)O
# Legend:
# fibrinogen = biological target: T1, fibrinogen (Bos taurus, UniProt P02672+P02676+P12799); experiment: SPR adsorption of fibrinogen to SAMs / grafted polymer films; type: binding, bovine; details: for % ML 30 min / dR/dt on / % ML 3 min: fibrinogen; for % ML 30 min / dR/dt on / % Fib off: single-component SAMs (a) and mixed SAMs (b); for % ML 3 min: single-component SAMs (a, RSH) and mixed SAMs (b, RNH2)
# T1 sequence (P02672 20-615): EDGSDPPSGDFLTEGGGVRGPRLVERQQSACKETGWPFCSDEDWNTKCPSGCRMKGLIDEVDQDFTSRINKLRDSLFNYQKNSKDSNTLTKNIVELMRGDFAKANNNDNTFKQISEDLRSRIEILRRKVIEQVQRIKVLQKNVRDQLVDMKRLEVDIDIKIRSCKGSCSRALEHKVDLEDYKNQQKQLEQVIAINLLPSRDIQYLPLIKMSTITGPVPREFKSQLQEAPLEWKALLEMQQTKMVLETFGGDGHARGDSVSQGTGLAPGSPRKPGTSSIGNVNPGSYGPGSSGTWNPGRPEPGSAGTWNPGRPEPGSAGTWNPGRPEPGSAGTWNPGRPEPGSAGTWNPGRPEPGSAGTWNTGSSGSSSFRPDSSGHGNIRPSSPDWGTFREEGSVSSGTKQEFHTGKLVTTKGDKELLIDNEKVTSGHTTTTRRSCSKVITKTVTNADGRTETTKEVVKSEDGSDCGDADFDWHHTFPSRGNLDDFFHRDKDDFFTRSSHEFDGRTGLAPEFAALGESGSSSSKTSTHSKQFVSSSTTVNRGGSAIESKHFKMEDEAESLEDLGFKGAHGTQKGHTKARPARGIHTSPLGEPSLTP
# T1 sequence (P02676 1-468): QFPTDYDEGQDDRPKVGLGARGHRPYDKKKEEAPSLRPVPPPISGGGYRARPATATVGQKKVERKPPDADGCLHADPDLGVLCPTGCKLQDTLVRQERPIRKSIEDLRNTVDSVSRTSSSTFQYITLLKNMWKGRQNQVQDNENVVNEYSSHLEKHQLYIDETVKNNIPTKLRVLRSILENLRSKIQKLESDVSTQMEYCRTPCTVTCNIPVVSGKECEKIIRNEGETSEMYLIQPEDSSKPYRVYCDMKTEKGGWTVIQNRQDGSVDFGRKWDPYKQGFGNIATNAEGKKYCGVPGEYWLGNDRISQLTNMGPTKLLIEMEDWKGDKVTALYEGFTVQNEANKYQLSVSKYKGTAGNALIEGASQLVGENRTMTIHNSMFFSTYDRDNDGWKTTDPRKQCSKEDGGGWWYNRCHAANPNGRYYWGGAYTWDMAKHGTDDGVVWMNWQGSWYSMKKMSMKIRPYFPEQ
# T1 sequence (P12799 25-444): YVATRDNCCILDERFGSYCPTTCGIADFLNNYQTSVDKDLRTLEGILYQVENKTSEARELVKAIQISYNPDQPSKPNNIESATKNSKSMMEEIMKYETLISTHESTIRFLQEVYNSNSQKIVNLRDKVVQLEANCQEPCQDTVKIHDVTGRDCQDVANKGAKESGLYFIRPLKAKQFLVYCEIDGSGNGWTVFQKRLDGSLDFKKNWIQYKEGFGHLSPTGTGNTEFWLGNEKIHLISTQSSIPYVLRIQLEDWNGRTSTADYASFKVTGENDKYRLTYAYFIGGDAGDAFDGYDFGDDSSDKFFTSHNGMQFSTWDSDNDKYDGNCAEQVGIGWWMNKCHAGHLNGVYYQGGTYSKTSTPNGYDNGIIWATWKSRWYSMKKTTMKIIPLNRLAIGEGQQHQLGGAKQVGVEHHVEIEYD
# lysozyme = lysozyme (Gallus gallus, UniProt P00698); experiment: SPR adsorption of lysozyme to SAMs / grafted polymer films; type: binding; details: for % ML 3 min / dR/dt on: lysozyme; for % ML 3 min / dR/dt on / % Lys off: single-component SAMs (a) and mixed SAMs (b)
# Sequence of lysozyme (P00698 19-147): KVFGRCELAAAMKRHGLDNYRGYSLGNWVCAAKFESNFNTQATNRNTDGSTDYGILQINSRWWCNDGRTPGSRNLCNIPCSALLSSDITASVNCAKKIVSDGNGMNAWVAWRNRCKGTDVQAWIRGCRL
# [1] = mixed SAM —CONRR′/—CO2H, 1 mg/mL fibrinogen flowed 3 min, relative to —CONH(CH2)10CH3/—CO2H SAM
# [2] = mixed SAM —CONRR′/—CO2H, 1 mg/mL fibrinogen flowed 30 min
# [3] = mixed SAM —CONRR′/—CO2H, 1 mg/mL lysozyme flowed 3 min
# [4] = mixed SAM —CONRR′/—CO2H, 1 mg/mL lysozyme flowed 30 min
Molecule,% Fiboff (percent decrease in adsorbed protein during 10 minute PBS wash) (fibrinogen; mixed SAM —CONRR′/—CO2H),dR/dton fibrinogen (maximum initial rate of adsorption) (fibrinogen; mixed SAM —CONRR′/—CO2H),% MLfib 3 min (fibrinogen; [1]),% MLfib 30 min (fibrinogen; [2]),% Lysoff (percent decrease in adsorbed protein during 10 minute PBS wash) (lysozyme; mixed SAM —CONRR′/—CO2H),dR/dton lysozyme (maximum initial rate of adsorption) (lysozyme; mixed SAM —CONRR′/—CO2H),% MLlys 3 min (lysozyme; [3]),% MLlys 30 min (lysozyme; [4]),further results
CC(=O)NCCN,13 ± 1%,50 ± 5 RU/sec,14 ± 1%,40 ± 2%,580 ± 20%,530 ± 120 RU/sec,1.4 ± 0.0%,5.4 ± 0.3%,
COC[C@H](OC)[C@H](OC)[C@H](OC)[C@@H](CN(C)C(=O)CCCCCCCCCCS)OC [Entry 4a],,,,,,,,,% ML 30 min (fibrinogen): 0.7 ±0.1%; dR/dt on (fibrinogen): 30 ±14 RU/sec; % ML 3 min (fibrinogen): 0.2 ±0.1%; % Fib off (fibrinogen): 66 ±5%; % ML 3 min (lysozyme; footnote b (30 minutes)): 0.5 ±0.2%; % ML 3 min (lysozyme): 0.5 ±0.0%; dR/dt on (lysozyme): 29 ±20 RU/sec; % Lys off (lysozyme): 7 ±0%
Nc1ccc(O[C@@H]2O[C@H](CO)[C@@H](O[C@@H]3O[C@H](CO)[C@H](O)[C@H](O)[C@H]3O)[C@H](O)[C@H]2O)cc1,7.4 ± 0.4%,130 ± 80 RU/sec,17 ± 1.4%,32 ± 0.5%,190 ± 16%,290 ± 120 RU/sec,3.7 ± 0.1%,9.3 ± 0.4%,
N#CCCNCCC#N [HN(CH2CH2CN)2],20 ± 0.7%,590 ± 240 RU/sec,43 ± 1.0%,58 ± 1.6%,290 ± 8%,2700 ± 160 RU/sec,17 ± 1.0%,40 ± 2.0%,
CC(=O)N1CCN(C(=O)CCCCCCCCCCCCCCCS)CC1 [Entry 2a],,,,,,,,,% ML 30 min (fibrinogen): 2.2 ±0.1%; dR/dt on (fibrinogen): 22 ±10 RU/sec; % ML 3 min (fibrinogen): 0.7 ±0.0%; % Fib off (fibrinogen): 6.8 ±5%; % ML 3 min (lysozyme; footnote b (30 minutes)): 0.8 ±0.2%; % ML 3 min (lysozyme): 0.8 ±0.3%; dR/dt on (lysozyme): 100 ±10 RU/sec; % Lys off (lysozyme): 110 ±0%
CN(C)C(=O)CN,19 ± 0.2%,202 ± 80 RU/sec,18 ± 0.5%,33 ± 0.5%,350 ± 10%,590 ± 270 RU/sec,7.2 ± 1%,15 ± 1%,
(CH3)2N(Sar)3-NHCO(CH2)15SH [Entry 5a],,,,,,,,,% ML 30 min (fibrinogen): 2.0%; dR/dt on (fibrinogen): 24 RU/sec; % ML 3 min (fibrinogen): 0.7%; % Fib off (fibrinogen): 5.7%; % ML 3 min (lysozyme; footnote b (30 minutes)): 2.0%; % ML 3 min (lysozyme): 1.8%; dR/dt on (lysozyme): 33 RU/sec; % Lys off (lysozyme): 18%
CNCC(=O)N(C)CC(=O)N(C)CC(=O)N(C)CC(=O)N(C)C [H(CH3)N(Sar)4N(CH3)2] (H-[Sar][Sar][Sar][Sar]-NMe2),,70 ± 20 RU/sec,0.5 ± 0.0%,1.7 ± 0.2%,70 ± 30%,80 ± 40 RU/sec,0.8 ± 0.1%,1.5 ± 0.7%,
"OCCOCCOCCOCCCCCCCCCCCS [Entry 3a, HOEG3(CH2)11SH, reference compound]",,,,,,,,,% ML 30 min (fibrinogen): 0.2%; % ML 3 min (fibrinogen): 0.2%; % ML 3 min (lysozyme; footnote b (30 minutes)): 0.2%; % ML 3 min (lysozyme): 0.2%
NC[C@H](O)[C@H](O)[C@H](O)[C@@H](O)CO,4.8 ± 2%,820 ± 500 RU/sec,47 ± 12%,68 ± 7%,290 ± 3%,970 ± 400 RU/sec,13 ± 7%,20 ± 0.3%,
CNC [HN(CH3)2],,,,,,,,,% Fiboff (percent decrease in adsorbed protein during 10 minute PBS wash) (fibrinogen): 24 ± 0.1%; % MLfib 3 min (fibrinogen): 26 ± 6%; % MLfib 30 min (fibrinogen): 54 ± 0.8%; dR/dton fibrinogen (maximum initial rate of adsorption) (fibrinogen): 160 ± 30 RU/sec; % Lysoff (percent decrease in adsorbed protein during 10 minute PBS wash) (lysozyme): 120 ± 1%; % MLlys 3 min (lysozyme): 43 ± 16%; % MLlys 30 min (lysozyme): 80 ± 3%; dR/dton lysozyme (maximum initial rate of adsorption) (lysozyme): 2400 ± 260 RU/sec
N[C@H]1C(O)O[C@H](CO)[C@@H](O)[C@@H]1O (some centres unmarked),11 ± 0.0%,210 ± 120 RU/sec,31 ± 0.7%,55 ± 1.1%,330 ± 0.2%,620 ± 280 RU/sec,7.8 ± 0.2%,25 ± 2.1%,
CN(C)C(=O)CNC(=O)CNC(=O)CN [H2N(Gly)3N(CH3)2] (H-Gly-Gly-Gly-NMe2),21 ± 0.7%,55 ± 40 RU/sec,8 ± 1%,22 ± 0.4%,630 ± 4%,620 ± 130 RU/sec,2.1 ± 1.5%,8.8 ± 0.5%,
CNCC(=O)N(C)C,28 ± 0.7%,50 ± 23 RU/sec,1.0 ± 0.0%,9.1 ± 0.3%,740 ± 9%,290 ± 130 RU/sec,0.2 ± 0.1%,2.4 ± 0.3%,

# From patent US7494714B2, “Surfaces that resist the adsorption of biological species” (President & Fellows of Harvard College, priority 2000, dated 2009)
